Results on 5 compounds are retold here after US8404869B2, “Phenanthrenequinone-based compound and pharmaceutical composition containing the same for the treatment or prevention of disease involving metabolic syndrome” (Mazence Inc., priority 2007, dated 2013).

Structures are written as SMILES.

The subject of test [1] is AMPK. The experiment in a line: Determination of AMPK activation in differentiated C2C12 myoblast cells (SAMS peptide, [γ-32P]ATP). It counts as cell-based. The note with it: C2C12 myoblast cells treated at 5 μg/ml; DMSO (0.5%) control = 1. As to the method: Myoblast cells, C2C12, were cultured in DMEM containing 10% bovine calf serum. When a cell density reached a range of about 85% to 90%, the culture medium was replaced with a medium containing 1% bovine calf serum to induce differentiation of cells. The thus-differentiated myoblast cells were treated with samples synthesized in Examples 1 through 16 at a concentration of 5 μg/ml, and compared with a control group. Enzymatic activity of AMPK was determined as follows. Firstly, C2C12 cells were lysed to obtain protein extracts and then ammonium sulfate was added to a final concentration of 30%, thereby precipitating proteins. Protein precipitates were dissolved in a buffer (62.5 mM Hepes, pH 7.2, 62.5 mM NaCl, 62.5 mM NaF, 1.25 mM Na pyrophosphate, 1.25 mM EDTA, 1 mM DTT, 0.1 mM PMSF, and 200 μM AMP). Thereafter, 200 μM SAMS peptide (HMRSAMSGLHLVKRR: the underlined serine residue is a phosphorylation site, as an AMPK phosphorylation site of acetyl-CoA carboxylase) and [γ-32P]ATP were added thereto and reactants were reacted for 10 minutes at 30° C. This was followed by spotting of the resulting reaction solution on p81 phosphocellulose paper. The p81 paper was washed with a 3% phosphoric acid solution and radioactivity thereof was measured. For each reaction condition, reactions involving no SAMS peptide were also conducted and basic values were subtracted from the thus-observed values.

For test [2], the system named is C57BL/6JL Lep ob/Lep ob mice. Kind of test: Weight loss effects in obese mice (ob/ob). The class given is in vivo. To be noted: mixed-feed of 0.4% for 18 days; for change in vivo at 0.4 % in feed: Mus musculus, po, 432 h, (Final BW−Initial BW)/Initial BW×100, read-out: Increase in BW; for Final BW: ob/ob male mice. As to the method:
(§1) 10-week-old C57BL/6JL Lep ob/Lep ob male mice having obesity characteristics and predisposition were purchased from Daehan Biolink Co., Ltd. (Chungchongbuk-do, Korea). Animals were raised in a breeding room maintained at a temperature of 23° C., 55% humidity, illumination of 300 to 500 lux, a 12-h light/dark (L/D) cycle, and ventilation of 10 to 18 times/hr. Animals were fed ad libitum pellets of Purina Rodent Laboratory Chow 5001 (purchased from Purina Mills Inc., St. Louis, Mo., USA) as a solid feed for experimental animals and tap water as drinking water. Mice were allowed to acclimate to new environment of the breeding room for two weeks and were then administered some pyrano-3,4-phenanthrenequinone or furano-3,4-naphthoquinone derivatives synthesized according to the present invention at mixed-feed of 0.4% for 18 days. Observation was made on changes in body weight, blood glucose and dietary intake, with respect to a time course of administration. After administration was complete, confirm changes in glucose, lipid and enzyme levels in blood.
(§2) For comparison, the same experiments were carried out for the subject (negative control group) to which the active ingredient was not administered, and subject (positive control group) to which Cryptotanshinone, extracted from Danshen by a method as set forth in Example 1 of the Korean Patent Application No. 2004-0116339 by the present applicant, was administered by the above-mentioned condition.
Herein, ‘Increase in BW’ is calculated as the following; Increase in BW=(Final BW−Initial BW)/Initial BW×100

Test [3] deals with C57BL/6JL Lep ob/Lep ob mice. Kind of test: Blood biomarkers (lipid, glucose, enzyme levels) in ob/ob mice. Also on record: unit not given here. It counts as in vivo. The note with it: after mixed-feed of 0.4% for 18 days. As to the method: as §1, §2

`CC1OC2=C(C(=O)C(=O)c3c2ccc2ccccc32)C1(C)C` (centres unmarked) [Example 8, 1,1,2-Trimethyl-1,2-dihydro-phenanthro[1,2-b]furan-10,11-dione] came in with an AMPK fold in test [1] of 2.5 fold. Further, in test [2], the change in vivo at 0.4 % in feed is -20.3% and the “Final BW” value came out at 41.1 ± 1.3 g. In test [3], this compound registered a GOT of 376.5, a GPT of 241.0, an HDL chol of 48.0 and an LDL chol of 13.75. In test [3], this compound gave a T. chol of 132.5, a glucose of 118 and a triglyceride of 79.5.
For `COc1ccc2ccc3c(c2c1)C(=O)C(=O)C1=C3OC(C)C1` (centres unmarked) [Example 15, 8-Methoxy-2-methyl-1,2-dihydro-phenanthro[1,2-b]furan-10,11-dione], in test [1], the AMPK fold is listed as 2.2 fold. Also, in test [2], the change in vivo at 0.4 % in feed was -6.7% and the “Final BW” value is 48.5 ± 1.5 g. In test [3], this compound displayed a GOT of 312.5, a GPT of 206.7, an HDL chol of 46.0 and an LDL chol of 8.75. Moreover, in test [3], the T. chol turned out to be 142.0, the glucose was determined as 155 and the triglyceride is given as 79.0.
In turn, `CC1CC2=C(O1)c1ccc3c(c1C(=O)C2=O)CCCC3` (centres unmarked) [Example 1, 2-Methyl-1,2,6,7,8,9-hexahydro-phenanthro[1,2-b]furan-10,11-dione] registered an AMPK fold in test [1] of 2.2 fold. Moreover, in test [2], the change in vivo at 0.4 % in feed was -14.2% and the “Final BW” value was 45.3 ± 1.7 g. In test [3], the GOT is on record as 233.3, the GPT was 118.8, the HDL chol is 42.5 and the LDL chol turned out to be 13.00. Besides, in test [3], the T. chol is listed as 141.7, the glucose is reported as 120 and the triglyceride stood at 81.7.
Consider `Cc1cc2c(c3ccccc13)C(=O)C(=O)C1=C2OC(C)(C)CC1` [Example 16, 3,3,6-Trimethyl-2,3-dihydro-1H-4-oxa-chrysene-11,12-dione], for which the AMPK fold in test [1] was determined as 1.9 fold. Further, in test [2], the change in vivo at 0.4 % in feed is -7.2% and the “Final BW” value came out at 48.0 ± 1.9 g. In test [3], the GOT worked out at 342.5, the GPT was 197.5, the HDL chol turned out to be 47.0 and the LDL chol turned out to be 12.00. In test [3], this compound returned a T. chol of 140.0, a glucose of 135 and a triglyceride of 82.3.
In the case of `CC1OC2=C(C(=O)C(=O)c3c2ccc2ccc(C(C)(C)C)cc32)C1(C)C` (centres unmarked) [Example 12, 8-tert-Butyl-1,1,2-trimethyl-1,2-dihydro-phenanthro[1,2-b]furan-10,11-dione], the AMPK fold in test [1] was 2.2 fold. Moreover, in test [2], the change in vivo at 0.4 % in feed is -6.9% and the “Final BW” value was determined as 48.3 ± 2.3 g. In test [3], the GOT is 355.0, the GPT is on record as 77.0, the HDL chol amounted to 48.0 and the LDL chol was determined as 11.00. Moreover, in test [3], the T. chol was 135.0, the glucose was 153 and the triglyceride amounted to 69.0.
